Assay results: US20230265105A1, “MACROCYCLIC 7-PYRAZOL-5-YL-INDOLE DERIVATIVES AS INHIBITORS OF MCL-1” (Janssen Pharmaceutica NV, priority 2020, published 2023)

How the values were obtained:
[1] = biological target: Myeloid Cell Leukemia 1 (Mcl-1) (Homo sapiens, UniProt Q07820); experiment: Terbium labeled Mcl-1 HTRF binding assay with Cy5-labeled BIM BH3 peptide; details: Ki=IC50/(1+[L]/Kd), [L]=8 nM, Kd=10 nM, 60 min incubation at room temperature, read-out: Tb-MCL1 Ki
Procedure: Terbium labeled Myeloid Cell Leukemia 1 (Mcl-1) homogeneous time-resolved fluorescence (HTRF) binding assay utilizing the BIM BH3 peptide (H2N-(C/Cy5Mal) WIAQELRRIGDEFN-OH) as the binding partner for Mcl-1.
This assay evaluated inhibition of the BH3 domain: Mcl-1 interaction by measuring the displacement of Cy5-labeled BIM BH3 peptide (H2N—(C/Cy5Mal) WIAQELRRIGDEFN-OH) in the HTRF assay format.
The following assay and stock buffers were prepared for use in the assay: (a) Stock buffer: 10 mM Tris-HCl, pH=7.5+150 mM NaCl, filtered, sterilized, and stored at 4° C.; and (b) 1×assay buffer, where the following ingredients were added fresh to stock buffer: 2 mM dithiothreitol (DTT), 0.0025% Tween-20, 0.1 mg/mL bovine serum albumin (BSA). The 1×Tb-Mcl-1+Cy5 Bim peptide solution was prepared by diluting the protein stock solution using the 1×assay buffer (b) to 25 pM Tb-Mcl-1 and 8 nM Cy5 Bim peptide.
Using the Acoustic ECHO, 100 nL of 100×test compound(s) were dispensed into individual wells of a white 384-well Perkin Elmer Proxiplate, for a final compound concentration of 1× and final DMSO concentration of 1%. Inhibitor control and neutral control (NC, 100 nL of 100% DMSO) were stamped into columns 23 and 24 of assay plate, respectively. Into each well of the plate was then dispensed 10 μL of the 1×Tb-Mcl-1+Cy5 Bim peptide solution. The plate was centrifuged with a cover plate at 1000 rpm for 1 minute, then incubated for 60 minutes at room temperature with plates covered.
The TR-FRET signal was read on an BMG PHERAStar FSX MicroPlate Reader at room temperature using the HTRF optic module (HTRF: excitation: 337 nm, light source: laser, emission A: 665 nm, emission B: 620 nm, integration start: 60 μs, integration time: 400 μs).
The BMG PHERAStar FSX MicroPlate Reader was used to measure fluorescence intensity at two emission wavelengths—665 nm and 620 nm—and report relative fluorescence units (RFU) for both emissions, as well as a ratio of the emissions (665 nm/620 nm)*10,000. The RFU values were normalized to percent inhibition as follows:
% inhibition=(((NC−IC)−(compound−IC))/(NC−IC))*100
where IC (inhibitor control, low signal)=mean signal of 1×Tb-MCl-1+Cy5 Bim peptide+inhibitor control or 100% inhibition of Mcl-1; NC (neutral control, high signal)=mean signal 1×Tb-MCl-1+Cy5 Bim peptide with DMSO only or 0% inhibition
An 11-point dose response curve was generated to determine IC50 values (using GenData) based on the following equation:
Y=Bottom+(Top−Bottom)/(1+10^((log IC50−X)*HillSlope))
where Y=% inhibition in the presence of X inhibitor concentration; Top=100% inhibition derived from the IC (mean signal of Mcl-1+inhibitor control); Bottom=0% inhibition derived from the NC (mean signal of Mcl-1+DMSO); Hillslope=Hill coefficient; and IC50=concentration of compound with 50% inhibition in relation to top/neutral control (NC).
In this assay [L]=8 nM and Kd=10 nM
Representative compounds of the present invention were tested according to the procedure as described above, with results as listed in the Table below (n.d. means not determined).

[2] = tested on: MOLP-8 human multiple myeloma cell line; experiment: MOLP8 Caspase-Glo 3/7 apoptosis induction assay; type: cell-based; details: MOLP-8 cells, 2 hours at 37° C., 30 μM highest conc., averaged over all runs on all batches
Text: MCL-1 is a regulator of apoptosis and is highly over-expressed in tumor cells that escape cell death. The assay evaluates the cellular potency of small-molecule compounds targeting regulators of the apoptosis pathway, primarily MCL-1, Bfl-1, Bcl-2, and other proteins of the Bcl-2 family. Protein-protein inhibitors disrupting the interaction of anti-apoptotic regulators with BH3-domain proteins initiate apoptosis.
The Caspase-Glo® 3/7 Assay is a luminescent assay that measures caspase-3 and -7 activities in purified enzyme preparations or cultures of adherent or suspension cells. The assay provides a proluminescent caspase-3/7 substrate, which contains the tetrapeptide sequence DEVD. This substrate is cleaved to release aminoluciferin, a substrate of luciferase used in the production of light. Addition of the single Caspase-Glo® 3/7 Reagent in an “add-mix-measure” format results in cell lysis, followed by caspase cleavage of the substrate and generation of a “glow-type” luminescent signal.
This assay uses the MOLP-8 human multiple myeloma cell line, which is sensitive to MCL-1 inhibition.
Cell cultures were maintained between 0.2 and 2.0×10^6 cells/mL. The cells were harvested by collection in 50 mL conical tubes. The cells were then pelleted at 500 g for 5 mins before removing supernatant and resuspension in fresh pre-warmed culture medium. The cells were counted and diluted as needed.
The assay reagent was prepared by transferring the buffer solution to the substrate vial and mixing. The solution may be stored for up to 1 week at 4° C. with negligible loss of signal.
Compounds were delivered in assay-ready plates (Proxiplate) and stored at −20° C.
Assays always include 1 reference compound plate containing reference compounds. The plates were spotted with 40 nL of compounds (0.5% DMSO final in cells; serial dilution; 30 μM highest conc. 1/3 dilution, 10 doses, duplicates). The compounds were used at room temperature and 4 μL of pre-warmed media was added to all wells except column 2 and 23. The negative control was prepared by adding 1% DMSO in media. The positive control was prepared by adding the appropriate positive control compound in final concentration of 60 μM in media. The plate was prepared by adding 4 μL negative control to column 23, 4 μL positive control to column 2 and 4 μL cell suspension to all wells in the plate. The plate with cells was then incubated at 37° C. for 2 hours. The assay signal reagent is the Caspase-Glo solution described above, and 8 μL was added to all wells. The plates were then sealed and measured after 30 minutes.
The activity of a test compound was calculated as percent change in apoptosis induction as follows:
[formula] [formula] % Effect (AC50)=100−((sample−LC)/(HC−LC))*100
% Control=(sample/HC)*100
% Control min=(sample−LC)/(HC−LC)*100

Myeloid Cell Leukemia 1 (Mcl-1), sequence (Q07820 whole entry): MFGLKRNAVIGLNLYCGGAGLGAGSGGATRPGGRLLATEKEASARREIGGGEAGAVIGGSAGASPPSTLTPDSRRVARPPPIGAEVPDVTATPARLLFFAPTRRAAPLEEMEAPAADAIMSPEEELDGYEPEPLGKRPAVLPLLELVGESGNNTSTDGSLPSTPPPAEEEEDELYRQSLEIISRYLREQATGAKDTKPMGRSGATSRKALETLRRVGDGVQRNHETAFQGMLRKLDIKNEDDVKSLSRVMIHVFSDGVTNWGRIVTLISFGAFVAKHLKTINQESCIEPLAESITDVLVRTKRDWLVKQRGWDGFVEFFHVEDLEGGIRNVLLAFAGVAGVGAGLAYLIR

SMILES | Ki [1] [nM] | AC50 [2] [nM] | AC50 ([2]; Homo sapiens, MOLP-8, 2 h) [nM]
Cc1nn(C)c2c1CSCc1cc(n(C)n1)CSc1cc(c3ccccc3c1)OCCCc1c(C(=O)O)n(C)c3c-2c(Cl)ccc13 (single isomer, unassigned) [Compound 1] | 0.746 | 1220 | 
Cc1nn(C)c2c1CSCc1cc(n(C)n1)CSc1cc(c3ccccc3c1)OCCCc1c(C(=O)O)n(C)c3c-2c(Cl)ccc13 (single isomer, unassigned) [Compound 2] | 0.039 | 54 | 
COCCOCc1nn(C)c2c1CSCc1cc(n(C)n1)CCc1cc(c3ccccc3c1)OCCCc1c(C(=O)O)n(C)c3c-2c(Cl)ccc13 (single isomer, unassigned) [Compound 3] | 98.2 | > 30000 | 
COCCOCc1nn(C)c2c1CSCc1cc(n(C)n1)CCc1cc(c3ccccc3c1)OCCCc1c(C(=O)O)n(C)c3c-2c(Cl)ccc13 (single isomer, unassigned) [Compound 4] | 0.023 | 46 | 
Cn1nc2cc1CSc1cc(c3ccccc3c1)OCCCc1c(C(=O)O)n(C)c3c(c(Cl)ccc13)-c1c(cnn1C)CSC2 (single isomer, unassigned) [Compound 6] | 0.062 |  | 58
COCCOCc1nn(C)c2c1CSCc1cc(n(C)n1)CCc1cc(c3ccc(F)cc3c1)OCCCc1c(C(=O)O)n(C)c3c-2c(Cl)ccc13 (single isomer, unassigned) [Compound 7] | 52.3 | 20400 | 
COCCOCc1nn(C)c2c1CSCc1cc(n(C)n1)CCc1cc(c3ccc(F)cc3c1)OCCCc1c(C(=O)O)n(C)c3c-2c(Cl)ccc13 (single isomer, unassigned) [Compound 8] | 0.025 | 15 | 
Cc1nn(C)c2c1CSCc1cc(n(C)n1)CCc1cc(c3ccc(F)cc3c1)OCCCc1c(C(=O)O)n(C)c3c-2c(Cl)ccc13 (single isomer, unassigned) [Compound 9] | 18.7 | 8960 | 
Cc1nn(C)c2c1CSCc1cc(n(C)n1)CCc1cc(c3ccc(F)cc3c1)OCCCc1c(C(=O)O)n(C)c3c-2c(Cl)ccc13 (single isomer, unassigned) [Compound 10] | 0.307 | 10 | 
Cc1nn(C)c2c1CSCc1cc(n(C)n1)CCc1cc(c3ccc(F)cc3c1)OCCCc1c(C(=O)O)n(C)c3c-2c(Cl)ccc13 (single isomer, unassigned) [Compound 10a] | 0.041 | 68 | 
Cc1nn(C)c2c1CSCc1cc(n(C)n1)CCc1cc(c3ccccc3c1)OCCCc1c(C(=O)O)n(C)c3c-2c(Cl)ccc13 (single isomer, unassigned) [Compound 11] | 3.02 | 1620 | 
Cc1nn(C)c2c1CSCc1cc(n(C)n1)CCc1cc(c3ccccc3c1)OCCCc1c(C(=O)O)n(C)c3c-2c(Cl)ccc13 (single isomer, unassigned) [Compound 11a] | 3.68 | 2380 | 
Cc1nn(C)c2c1CSCc1cc(n(C)n1)CCc1cc(c3ccccc3c1)OCCCc1c(C(=O)O)n(C)c3c-2c(Cl)ccc13 (single isomer, unassigned) [Compound 12a] | 0.031 | 29 | 
CCn1c(C(=O)O)c2c3ccc(Cl)c(c31)-c1c(cnn1C)CCCc1cc(n(C)n1)CCc1cc(c3ccc(F)cc3c1)OCCC2 (single isomer, unassigned) [Compound 13] | 0.051 | 22 | 
CCn1c(C(=O)O)c2c3ccc(Cl)c(c31)-c1c(cnn1C)CCCc1cc(n(C)n1)CCc1cc(c3ccc(F)cc3c1)OCCC2 (single isomer, unassigned) [Compound 14] | 6.15 | 3460 | 
COCCOCc1nn(C)c2c1CSCc1cc(n(C)n1)CCc1cc(c3ccc(F)c(F)c3c1)OCCCc1c(C(=O)O)n(C)c3c-2c(Cl)ccc13 (single isomer, unassigned) [Compound 15] | 2.58 | 1400 | 
COCCOCc1nn(C)c2c1CSCc1cc(n(C)n1)CCc1cc(c3ccc(F)c(F)c3c1)OCCCc1c(C(=O)O)n(C)c3c-2c(Cl)ccc13 (single isomer, unassigned) [Compound 16] | 0.021 | 13 | 
COCCOCCc1nn(C)c2c1CSCc1cc(n(C)n1)CCc1cc(c3ccc(F)cc3c1)OCCCc1c(C(=O)O)n(C)c3c-2c(Cl)ccc13 (single isomer, unassigned) [Compound 17] | 0.011 | 15 | 
COCCOCCc1nn(C)c2c1CSCc1cc(n(C)n1)CCc1cc(c3ccc(F)cc3c1)OCCCc1c(C(=O)O)n(C)c3c-2c(Cl)ccc13 (single isomer, unassigned) [Compound 18] | 2.1 | 2430 | 
Cn1nc2cc1CCc1cc(c3ccc(F)cc3c1)OCCCc1c(C(=O)O)n(CCN3CCOCC3)c3c(c(Cl)ccc13)-c1c(cnn1C)CSC2 (single isomer, unassigned) [Compound 19] | 50.1 | 29500 | 
COCCOCCn1c(C(=O)O)c2c3ccc(Cl)c(c31)-c1c(cnn1C)CSCc1cc(n(C)n1)CCc1cc(c3ccc(F)cc3c1)OCCC2 (single isomer, unassigned) [Compound 20] | 200 | 30000 | 
Cn1nc2cc1CCc1cc(c3ccc(F)cc3c1)OCCCc1c(C(=O)O)n(CCN3CCOCC3)c3c(c(Cl)ccc13)-c1c(cnn1C)CSC2 (single isomer, unassigned) [Compound 21] | 0.02 | 82 | 
COCCOCCn1c(C(=O)O)c2c3ccc(Cl)c(c31)-c1c(cnn1C)CSCc1cc(n(C)n1)CCc1cc(c3ccc(F)cc3c1)OCCC2 (single isomer, unassigned) [Compound 22] | 0.029 | 22 | 
COCCn1c(C(=O)O)c2c3ccc(Cl)c(c31)-c1c(cnn1C)CSCc1cc(n(C)n1)CCc1cc(c3ccc(F)cc3c1)OCCC2 (single isomer, unassigned) [Compound 23] | 0.024 | 27 | 
